Measured values reported in BindingDB's records for doi:10.1016/j.bmc.2012.07.032 (Takeda Pharmaceutical, 2012).

Assay: Inhibition of VEGFR2 in HUVEC assessed as reduction of VGF-stimulated cell proliferation after 5 days

IC50: 1.2 nM
Structure (SMILES): CN(c1ccc(F)c(NC(=O)c2cccc(OC(C)(C)C#N)c2Cl)c1)c1ccc2nc(NC(=O)C3CC3)sc2n1
